{
  "source": "patent US20240384350A1",
  "about": "“METHODS OF TREATING CANCER WITH KINASE INHIBITORS” (BOARD OF REGENTS, THE UNIVERSITY OF TEXAS SYSTEM, priority 2021, published 2024)",
  "assay_in_all_cases": "Ba/F3 drug screening, Cell Titer Glo, IC50 Mut/WT",
  "type_in_all_cases": "cell-based",
  "key": {"EGFR L833V": {"molecular_target": "T1, EGFR L833V (Homo sapiens, UniProt P00533, L833V)", "T1 construct": "expressed in transfected cells; host or cells: Ba/F3 cells, retroviral pBabe-Puro vector", "settings": "Classical-Like, 72 hours", "experimental": "Data represent the ratio of the IC50 value for a given TKI for cells with a classical-like EGFR mutation to the IC50 value for cells with wildtype EGFR.\n(§1) Ba/F3 cell generation, drug screening, and IC50 approximations. Ba/F3 cells were obtained as a gift from Dr. Gordon Mills (MD Anderson Cancer Center), and maintained in RPMI (Sigma) containing 10% FBS, 1% penicillin/streptomycin, and 10 ng/ml recombinant mIL-3 (R&D Biosystems). To establish stable Ba/F3 cell lines, Ba/F3 cells were transduced with retroviruses containing mutant EGFR plasmids for 12-24 hours.\nAfter 48-72 hours of transduction, 2 μg/ml puromycin (Invitrogen) was added to Ba/F3 cell lines in complete RPMI. To select for EGFR positive cell lines, cells were stained with PE-EGFR (Biolegend) and sorted by FACS. After sorting, EGFR positive cells were maintained in RPMI containing 10% FBS, 1% penicillin/streptomycin, and 1 ng/ml EGF to support cell viability. […] Shortly, cells were plated in 384-well plates (Greiner Bio-One) at 2000-3000 cells per well in technical triplicate. Seven different concentrations of TKIs or DMSO vehicle were added to reach a final volume of 40 μL per well. After 72 hours, 11 μL of Cell Titer Glo (Promega) was added to each well. Plates were incubated for a minimum of 10 minutes, and bioluminescence was determined using a FLUOstar OPTIMA plate reader (BMG LABTECH). Raw bioluminescence values were normalized to DMSO control treated cells, and values were plotted in GraphPad Prism. […] Drug screens were performed in technical triplicate on each plate and either duplicate or triplicate biological replicates."}, "EGFR L861R": {"molecular_target": "T2, EGFR L861R (Homo sapiens, UniProt P00533, L861R)", "T2 construct": "expressed in transfected cells; host or cells: Ba/F3 cells, retroviral pBabe-Puro vector (vector made by GeneScript from EGFR WT)", "settings": "Classical-Like, 72 hours"}, "EGFR S811F": {"molecular_target": "T3, EGFR S811F (Homo sapiens, UniProt P00533, S811F)", "T3 construct": "expressed in transfected cells; host or cells: Ba/F3 cells, retroviral pBabe-Puro vector (vector made by GeneScript from EGFR WT)", "settings": "Classical-Like, 72 hours"}, "EGFR A763insFQEA": {"molecular_target": "T4, EGFR A763insFQEA (Homo sapiens, UniProt P00533, INS763FQEA)", "T4 construct": "expressed in transfected cells; host or cells: Ba/F3 cells, retroviral pBabe-Puro vector", "settings": "Classical-Like, 72 hours"}, "EGFR A763insLQEA": {"molecular_target": "T5, EGFR A763insLQEA (Homo sapiens, UniProt P00533, INS763LQEA)", "T5 construct": "expressed in transfected cells; host or cells: Ba/F3 cells, retroviral pBabe-Puro vector", "settings": "Classical-Like, 72 hours"}, "EGFR A767insASV": {"molecular_target": "T6, EGFR A767insASV (Homo sapiens, UniProt P00533, DUP767-769)", "T6 construct": "expressed in transfected cells; host or cells: Ba/F3 cells, retroviral pBabe-Puro vector", "settings": "Ex20, 72 hours"}, "EGFR N771dupN": {"molecular_target": "T7, EGFR N771dupN (Homo sapiens, UniProt P00533, DUP771-771)", "T7 construct": "expressed in transfected cells; host or cells: Ba/F3 cells, retroviral pBabe-Puro vector", "settings": "Ex20, 72 hours"}, "[1]": {"molecular_target": "T8, EGFR L747_K754del insATSPE (Homo sapiens, UniProt P00533, DEL747-749/K754E)", "T8 construct": "expressed in transfected cells; host or cells: Ba/F3 cells, retroviral pBabe-Puro vector", "settings": "T790M-like-3S, 72 hours"}, "EGFR T790M": {"molecular_target": "T9, EGFR T790M (Homo sapiens, UniProt P00533, T790M)", "T9 construct": "expressed in transfected cells; host or cells: Ba/F3", "settings": "T790M-like-3S, 72 hours"}, "EGFR L858R/T790M": {"molecular_target": "T10, EGFR L858R/T790M (Homo sapiens, UniProt P00533, L858R/T790M)", "T10 construct": "expressed in transfected cells; host or cells: Ba/F3", "settings": "T790M-like-3S, 72 hours"}, "EGFR S768I/T790M": {"molecular_target": "T11, EGFR S768I/T790M (Homo sapiens, UniProt P00533, S768I/T790M)", "T11 construct": "expressed in transfected cells; host or cells: Ba/F3", "settings": "T790M-like-3S, 72 hours"}, "EGFR Ex19del/T790M/G724S": {"molecular_target": "T12, EGFR Ex19del/T790M/G724S (Homo sapiens, UniProt P00533, DEL746-750/G724S/T790M)", "T12 construct": "expressed in transfected cells; host or cells: Ba/F3", "settings": "T790M-like-3S, 72 hours"}, "EGFR L858R T790M L792H": {"molecular_target": "T13, EGFR L858R T790M L792H (Homo sapiens, UniProt P00533, L792H/L858R/T790M)", "T13 construct": "expressed in transfected cells; host or cells: Ba/F3", "settings": "T790M-like-3S, 72 hours"}, "EGFR G724S T790M": {"molecular_target": "T14, EGFR G724S T790M (Homo sapiens, UniProt P00533, G724S/T790M)", "T14 construct": "expressed in transfected cells; host or cells: Ba/F3", "settings": "T790M-like-3R, 72 hours", "experimental": "Data represent the ratio of the IC50 value for a given TKI for cells with a T790M-like-3R EGFR mutation to the IC50 value for cells with wildtype EGFR.\nas §1\nAfter 48-72 hours of transduction, 2 μg/ml puromycin (Invitrogen) was added to Ba/F3 cell lines in complete RPMI. To select for EGFR positive cell lines, cells were stained with PE-EGFR (Biolegend) and sorted by FACS. After sorting, EGFR positive cells were maintained in RPMI containing 10% FBS, 1% penicillin/streptomycin, and 1 ng/ml EGF to support cell viability. […] Shortly, cells were plated in 384-well plates (Greiner Bio-One) at 2000-3000 cells per well in technical triplicate. Seven different concentrations of TKIs or DMSO vehicle were added to reach a final volume of 40 μL per well. After 72 hours, 11 μL of Cell Titer Glo (Promega) was added to each well. Plates were incubated for a minimum of 10 minutes, and bioluminescence was determined using a FLUOstar OPTIMA plate reader (BMG LABTECH). Raw bioluminescence values were normalized to DMSO control treated cells, and values were plotted in GraphPad Prism. […] Drug screens were performed in technical triplicate on each plate and either duplicate or triplicate biological replicates. […] Statistical differences between groups were determined by ANOVA as described in the figure legends."}, "EGFR L858R/T790M/L718Q": {"molecular_target": "T15, EGFR L858R/T790M/L718Q (Homo sapiens, UniProt P00533, L718Q/L858R/T790M)", "T15 construct": "expressed in transfected cells; host or cells: Ba/F3", "settings": "T790M-like-3R, 72 hours"}, "EGFR L858R T790M L718V": {"molecular_target": "T16, EGFR L858R T790M L718V (Homo sapiens, UniProt P00533, L718V/L858R/T790M)", "T16 construct": "expressed in transfected cells; host or cells: Ba/F3", "settings": "T790M-like-3R, 72 hours"}, "EGFR E709_T710del insD": {"molecular_target": "T17, EGFR E709_T710del insD (Homo sapiens, UniProt P00533, DEL709-709/T710D)", "T17 construct": "expressed in transfected cells; host or cells: Ba/F3", "settings": "PACC; E709_T710del insD; Ba/F3; 72 hours"}, "EGFR E709K G719S": {"molecular_target": "T18, EGFR E709K G719S (Homo sapiens, UniProt P00533, E709K/G719S)", "T18 construct": "expressed in transfected cells; host or cells: Ba/F3", "settings": "PACC; E709K G719S; Ba/F3; 72 hours"}, "EGFR L718Q": {"molecular_target": "T19, EGFR L718Q (Homo sapiens, UniProt P00533, L718Q)", "T19 construct": "expressed in transfected cells; host or cells: Ba/F3", "settings": "PACC; L718Q; Ba/F3; 72 hours", "experimental": "(§2) Data represent the ratio of the IC50 value for a given TKI for cells with a PACC EGFR mutation to the IC50 value for cells with wildtype EGFR.\nas §1\n(§3) After 48-72 hours of transduction, 2 μg/ml puromycin (Invitrogen) was added to Ba/F3 cell lines in complete RPMI. To select for EGFR positive cell lines, cells were stained with PE-EGFR (Biolegend) and sorted by FACS. After sorting, EGFR positive cells were maintained in RPMI containing 10% FBS, 1% penicillin/streptomycin, and 1 ng/ml EGF to support cell viability. Drug screening was performed as previously described^41,42. Shortly, cells were plated in 384-well plates (Greiner Bio-One) at 2000-3000 cells per well in technical triplicate. Seven different concentrations of TKIs or DMSO vehicle were added to reach a final volume of 40 μL per well. After 72 hours, 11 μL of Cell Titer Glo (Promega) was added to each well. Plates were incubated for a minimum of 10 minutes, and bioluminescence was determined using a FLUOstar OPTIMA plate reader (BMG LABTECH). Raw bioluminescence values were normalized to DMSO control treated cells, and values were plotted in GraphPad Prism. […] Drug screens were performed in technical triplicate on each plate and either duplicate or triplicate biological replicates."}, "EGFR L718V": {"molecular_target": "T20, EGFR L718V (Homo sapiens, UniProt P00533, L718V)", "T20 construct": "expressed in transfected cells; host or cells: Ba/F3", "settings": "PACC; L718V; Ba/F3; 72 hours"}, "EGFR G719A": {"molecular_target": "T21, EGFR G719A (Homo sapiens, UniProt P00533, G719A)", "T21 construct": "expressed in transfected cells; host or cells: Ba/F3", "settings": "PACC; G719A; Ba/F3; 72 hours"}, "EGFR G719A L861Q": {"molecular_target": "T22, EGFR G719A L861Q (Homo sapiens, UniProt P00533, G719A/L861Q)", "T22 construct": "expressed in transfected cells; host or cells: Ba/F3", "settings": "PACC; G719A L861Q; Ba/F3; 72 hours", "experimental": "as §2, §1, §3"}, "EGFR R776C": {"molecular_target": "T23, EGFR R776C (Homo sapiens, UniProt P00533, R776C)", "T23 construct": "host or cells: Ba/F3", "settings": "PACC; R776C; Ba/F3; 72 hours"}, "EGFR L858R L718Q": {"molecular_target": "T24, EGFR L858R L718Q (Homo sapiens, UniProt P00533, L718Q/L858R)", "T24 construct": "host or cells: Ba/F3", "settings": "PACC; L858R L718Q; Ba/F3; 72 hours"}, "EGFR Ex19del/C797S": {"molecular_target": "T25, EGFR Ex19del/C797S (Homo sapiens, UniProt P00533, C797S/DEL746-750)", "T25 construct": "expressed in transfected cells; host or cells: Ba/F3", "settings": "PACC; Ex19del/C797S; Ba/F3; 72 hours"}, "EGFR Ex19del L718Q": {"molecular_target": "T26, EGFR Ex19del L718Q (Homo sapiens, UniProt P00533, DEL746-750/L718Q)", "T26 construct": "expressed in transfected cells; host or cells: Ba/F3", "settings": "PACC; Ex19del L718Q; Ba/F3; 72 hours"}, "EGFR L858R G724S": {"molecular_target": "T27, EGFR L858R G724S (Homo sapiens, UniProt P00533, G724S/L858R)", "T27 construct": "expressed in transfected cells; host or cells: Ba/F3 (retroviral transduction, pBabe-Puro based vectors)", "settings": "PACC; L858R G724S; Ba/F3; 72 hours"}},
  "data": [
    {"smiles": "CN(C)C/C=C/C(=O)Nc1cc2c(Nc3ccc(Cl)c(Br)c3)ncnc2cn1", "note": "[Tarlox-TKI]", "values": [
      {"measurement": "ratio of IC50 for cells with mutant EGFR to IC50 for cells with wildtype EGFR (Mut/WT)", "setting": "EGFR L833V", "result": 0.003152},
      {"measurement": "ratio of IC50 for cells with mutant EGFR to IC50 for cells with wildtype EGFR (Mut/WT)", "setting": "EGFR L861R", "result": 0.01926},
      {"measurement": "ratio of IC50 for cells with mutant EGFR to IC50 for cells with wildtype EGFR (Mut/WT)", "setting": "EGFR S811F", "result": 0.1118},
      {"measurement": "ratio of IC50 for cells with mutant EGFR to IC50 for cells with wildtype EGFR (Mut/WT)", "setting": "EGFR A763insFQEA", "result": 0.05463},
      {"measurement": "ratio of IC50 for cells with mutant EGFR to IC50 for cells with wildtype EGFR (Mut/WT)", "setting": "EGFR A763insLQEA", "result": 0.0269},
      {"measurement": "ratio of IC50 for cells with mutant EGFR to IC50 for cells with wildtype EGFR (Mut/WT)", "setting": "EGFR A767insASV", "result": 0.9945},
      {"measurement": "ratio of IC50 for cells with mutant EGFR to IC50 for cells with wildtype EGFR (Mut/WT)", "setting": "EGFR N771dupN", "result": 7.062},
      {"measurement": "ratio of IC50 for cells with mutant EGFR to IC50 for cells with wildtype EGFR (Mut/WT)", "setting": "[1]", "result": 4.874},
      {"measurement": "ratio of IC50 for cells with mutant EGFR to IC50 for cells with wildtype EGFR (Mut/WT)", "setting": "EGFR T790M", "result": 4.92},
      {"measurement": "ratio of IC50 for cells with mutant EGFR to IC50 for cells with wildtype EGFR (Mut/WT)", "setting": "EGFR L858R/T790M", "result": 11.95},
      {"measurement": "ratio of IC50 for cells with mutant EGFR to IC50 for cells with wildtype EGFR (Mut/WT)", "setting": "EGFR S768I/T790M", "result": 60.19},
      {"measurement": "ratio of IC50 for cells with mutant EGFR to IC50 for cells with wildtype EGFR (Mut/WT)", "setting": "EGFR Ex19del/T790M/G724S", "result": 4.197},
      {"measurement": "ratio of IC50 for cells with mutant EGFR to IC50 for cells with wildtype EGFR (Mut/WT)", "setting": "EGFR L858R T790M L792H", "result": 5.198},
      {"measurement": "ratio of IC50 for cells with mutant EGFR to IC50 for cells with wildtype EGFR (Mut/WT)", "setting": "EGFR G724S T790M", "result": 1.041},
      {"measurement": "ratio of IC50 for cells with mutant EGFR to IC50 for cells with wildtype EGFR (Mut/WT)", "setting": "EGFR L858R/T790M/L718Q", "result": 304.5},
      {"measurement": "ratio of IC50 for cells with mutant EGFR to IC50 for cells with wildtype EGFR (Mut/WT)", "setting": "EGFR L858R T790M L718V", "result": 151.6},
      {"measurement": "ratio of IC50 for cells with mutant EGFR to IC50 for cells with wildtype EGFR (Mut/WT)", "setting": "EGFR E709_T710del insD", "result": 0.782},
      {"measurement": "ratio of IC50 for cells with mutant EGFR to IC50 for cells with wildtype EGFR (Mut/WT)", "setting": "EGFR E709K G719S", "result": 0.06517},
      {"measurement": "ratio of IC50 for cells with mutant EGFR to IC50 for cells with wildtype EGFR (Mut/WT)", "setting": "EGFR L718Q", "result": 0.06989},
      {"measurement": "ratio of IC50 for cells with mutant EGFR to IC50 for cells with wildtype EGFR (Mut/WT)", "setting": "EGFR L718V", "result": 1.421},
      {"measurement": "ratio of IC50 for cells with mutant EGFR to IC50 for cells with wildtype EGFR (Mut/WT)", "setting": "EGFR G719A", "result": 0.01637},
      {"measurement": "ratio of IC50 for cells with mutant EGFR to IC50 for cells with wildtype EGFR (Mut/WT)", "setting": "EGFR G719A L861Q", "result": 0.4976},
      {"measurement": "ratio of IC50 for cells with mutant EGFR to IC50 for cells with wildtype EGFR (Mut/WT)", "setting": "EGFR R776C", "result": 0.02009},
      {"measurement": "ratio of IC50 for cells with mutant EGFR to IC50 for cells with wildtype EGFR (Mut/WT)", "setting": "EGFR L858R L718Q", "result": 0.3655},
      {"measurement": "ratio of IC50 for cells with mutant EGFR to IC50 for cells with wildtype EGFR (Mut/WT)", "setting": "EGFR Ex19del/C797S", "result": 0.2272},
      {"measurement": "ratio of IC50 for cells with mutant EGFR to IC50 for cells with wildtype EGFR (Mut/WT)", "setting": "EGFR Ex19del L718Q", "result": 0.09651},
      {"measurement": "ratio of IC50 for cells with mutant EGFR to IC50 for cells with wildtype EGFR (Mut/WT)", "setting": "EGFR L858R G724S", "result": 0.02628}
    ]}
  ]
}
